Here are results for two compounds from ChEMBL document CHEMBL2417377, “Hit-to-lead optimization and kinase selectivity of imidazo[1,2-a]quinoxalin-4-amine derived JNK1 inhibitors” (Bioorg Med Chem Lett, 2013).

One test concerns PC-3. The experiment in a line: Inhibition of KHS1 in human PC3 cell lysates at 10 uM using desthiobiotin-tagged ATP probe AX9989 followed by trypsinization by LC/MS analysis. The class given is cell-free.
The target in test [1] is Mitogen-activated protein kinase kinase kinase 4 (Homo sapiens) (UniProt Q9Y6R4). The experiment in a line: Inhibition of MAP3K4 in human PC3 cell lysates at 10 uM using desthiobiotin-tagged ATP probe AX9989 followed by trypsinization by LC/MS analysis. The settings on record: PC-3.
Mitogen-activated protein kinase kinase kinase 4 (Homo sapiens), sequence (Q9Y6R4 whole entry): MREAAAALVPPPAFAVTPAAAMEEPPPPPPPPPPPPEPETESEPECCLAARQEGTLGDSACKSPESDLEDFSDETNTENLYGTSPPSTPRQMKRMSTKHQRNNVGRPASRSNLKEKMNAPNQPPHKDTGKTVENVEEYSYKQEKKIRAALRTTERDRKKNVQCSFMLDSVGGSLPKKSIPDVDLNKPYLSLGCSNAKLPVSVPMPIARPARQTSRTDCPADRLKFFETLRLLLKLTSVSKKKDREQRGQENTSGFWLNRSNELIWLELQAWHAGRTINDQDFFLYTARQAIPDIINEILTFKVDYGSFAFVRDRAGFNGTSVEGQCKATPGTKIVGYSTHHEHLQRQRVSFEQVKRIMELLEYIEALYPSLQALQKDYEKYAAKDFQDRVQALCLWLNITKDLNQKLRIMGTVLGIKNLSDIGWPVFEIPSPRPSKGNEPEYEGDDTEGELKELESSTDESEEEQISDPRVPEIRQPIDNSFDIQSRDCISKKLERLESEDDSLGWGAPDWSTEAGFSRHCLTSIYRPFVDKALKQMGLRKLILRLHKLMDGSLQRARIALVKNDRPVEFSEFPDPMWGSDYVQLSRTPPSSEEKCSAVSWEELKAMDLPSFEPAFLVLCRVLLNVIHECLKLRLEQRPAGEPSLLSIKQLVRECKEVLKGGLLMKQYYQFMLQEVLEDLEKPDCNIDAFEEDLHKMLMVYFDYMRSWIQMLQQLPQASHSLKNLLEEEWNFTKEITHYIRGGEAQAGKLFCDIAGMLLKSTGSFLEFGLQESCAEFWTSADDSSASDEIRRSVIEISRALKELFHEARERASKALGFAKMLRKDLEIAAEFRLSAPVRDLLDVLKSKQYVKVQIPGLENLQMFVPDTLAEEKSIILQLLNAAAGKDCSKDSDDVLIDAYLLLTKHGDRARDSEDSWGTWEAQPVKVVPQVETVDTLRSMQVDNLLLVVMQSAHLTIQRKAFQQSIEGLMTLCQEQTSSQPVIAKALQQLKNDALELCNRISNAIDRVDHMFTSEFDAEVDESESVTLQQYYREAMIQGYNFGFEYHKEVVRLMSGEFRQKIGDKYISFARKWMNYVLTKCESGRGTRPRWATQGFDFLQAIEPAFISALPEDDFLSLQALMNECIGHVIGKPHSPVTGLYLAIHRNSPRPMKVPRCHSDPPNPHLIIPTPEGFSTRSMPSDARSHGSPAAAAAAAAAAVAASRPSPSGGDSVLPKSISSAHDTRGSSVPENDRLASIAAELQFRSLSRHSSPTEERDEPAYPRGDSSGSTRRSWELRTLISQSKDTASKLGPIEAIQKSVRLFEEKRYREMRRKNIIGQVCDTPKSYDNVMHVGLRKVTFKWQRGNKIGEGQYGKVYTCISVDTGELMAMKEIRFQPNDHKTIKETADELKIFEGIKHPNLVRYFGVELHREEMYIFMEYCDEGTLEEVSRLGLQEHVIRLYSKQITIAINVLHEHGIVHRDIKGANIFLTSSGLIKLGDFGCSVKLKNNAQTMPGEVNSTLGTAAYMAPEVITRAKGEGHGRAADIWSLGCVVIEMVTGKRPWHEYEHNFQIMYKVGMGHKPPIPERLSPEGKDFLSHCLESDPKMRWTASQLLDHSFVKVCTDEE
In test [2] the target is Serine/threonine-protein kinase Nek7 (Homo sapiens) (UniProt Q8TDX7). The experiment in a line: Inhibition of NEK7 in human PC3 cell lysates at 10 uM using desthiobiotin-tagged ATP probe AX9989 followed by trypsinization by LC/MS analysis. To be noted: PC-3.
Serine/threonine-protein kinase Nek7 (Homo sapiens), sequence (Q8TDX7 whole entry, looked up): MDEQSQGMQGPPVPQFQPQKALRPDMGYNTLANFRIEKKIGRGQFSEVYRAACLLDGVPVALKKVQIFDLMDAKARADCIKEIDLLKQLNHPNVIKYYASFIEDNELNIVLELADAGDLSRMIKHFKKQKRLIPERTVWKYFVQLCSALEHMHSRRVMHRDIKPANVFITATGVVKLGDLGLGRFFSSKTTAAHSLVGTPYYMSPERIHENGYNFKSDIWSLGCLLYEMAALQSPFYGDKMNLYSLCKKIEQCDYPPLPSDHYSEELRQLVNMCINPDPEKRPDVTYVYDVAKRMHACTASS
For test [3], the target named is Serine/threonine-protein kinase PRP4 homolog (Homo sapiens) (UniProt Q13523). The experiment in a line: Inhibition of PRP4 in human PC3 cell lysates at 10 uM using desthiobiotin-tagged ATP probe AX9989 followed by trypsinization by LC/MS analysis. The settings on record: PC-3.
Serine/threonine-protein kinase PRP4 homolog (Homo sapiens), sequence (Q13523 whole entry): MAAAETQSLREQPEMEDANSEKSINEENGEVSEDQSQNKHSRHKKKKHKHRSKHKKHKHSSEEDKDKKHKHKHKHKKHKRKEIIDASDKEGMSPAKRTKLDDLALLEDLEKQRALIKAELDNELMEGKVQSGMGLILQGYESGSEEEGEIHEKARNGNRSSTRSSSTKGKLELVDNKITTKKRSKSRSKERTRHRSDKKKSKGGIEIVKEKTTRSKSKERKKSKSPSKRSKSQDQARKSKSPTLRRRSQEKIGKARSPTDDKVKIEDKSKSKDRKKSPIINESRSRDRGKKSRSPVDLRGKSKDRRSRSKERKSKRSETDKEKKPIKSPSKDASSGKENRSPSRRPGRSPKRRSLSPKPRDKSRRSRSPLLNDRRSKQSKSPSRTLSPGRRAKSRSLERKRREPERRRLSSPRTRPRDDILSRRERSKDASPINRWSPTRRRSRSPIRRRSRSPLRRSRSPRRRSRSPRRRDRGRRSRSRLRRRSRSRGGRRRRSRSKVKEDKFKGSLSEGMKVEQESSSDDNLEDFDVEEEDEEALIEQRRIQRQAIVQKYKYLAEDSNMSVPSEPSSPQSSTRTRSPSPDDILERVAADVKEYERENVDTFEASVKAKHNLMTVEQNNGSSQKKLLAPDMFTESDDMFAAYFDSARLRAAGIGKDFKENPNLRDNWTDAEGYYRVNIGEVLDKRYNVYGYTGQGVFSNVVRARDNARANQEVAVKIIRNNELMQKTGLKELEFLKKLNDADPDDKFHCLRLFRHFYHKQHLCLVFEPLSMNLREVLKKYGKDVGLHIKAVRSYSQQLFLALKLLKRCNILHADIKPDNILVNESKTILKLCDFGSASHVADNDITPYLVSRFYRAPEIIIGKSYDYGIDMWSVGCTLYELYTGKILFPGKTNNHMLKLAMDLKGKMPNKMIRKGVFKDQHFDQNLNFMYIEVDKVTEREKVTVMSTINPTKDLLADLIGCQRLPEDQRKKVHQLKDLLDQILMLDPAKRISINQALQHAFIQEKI
Test [4] addresses Interleukin-1 receptor-associated kinase 1 (Homo sapiens) (UniProt P51617). The test is described as follows: Inhibition of IRAK1 in human PC3 cell lysates at 10 uM using desthiobiotin-tagged ATP probe AX9989 followed by trypsinization by LC/MS analysis. To be noted: PC-3.
Test [5] has as its target Serine/threonine-protein kinase Nek6 (Homo sapiens) (UniProt Q9HC98). The experiment in a line: Inhibition of NEK6 in human PC3 cell lysates at 10 uM using desthiobiotin-tagged ATP probe AX9989 followed by trypsinization by LC/MS analysis. To be noted: PC-3.
For test [6], the target named is T1, Serine/threonine-protein kinase TAO1 (Homo sapiens) (UniProt Q7L7X3).
T1 sequence (whole entry): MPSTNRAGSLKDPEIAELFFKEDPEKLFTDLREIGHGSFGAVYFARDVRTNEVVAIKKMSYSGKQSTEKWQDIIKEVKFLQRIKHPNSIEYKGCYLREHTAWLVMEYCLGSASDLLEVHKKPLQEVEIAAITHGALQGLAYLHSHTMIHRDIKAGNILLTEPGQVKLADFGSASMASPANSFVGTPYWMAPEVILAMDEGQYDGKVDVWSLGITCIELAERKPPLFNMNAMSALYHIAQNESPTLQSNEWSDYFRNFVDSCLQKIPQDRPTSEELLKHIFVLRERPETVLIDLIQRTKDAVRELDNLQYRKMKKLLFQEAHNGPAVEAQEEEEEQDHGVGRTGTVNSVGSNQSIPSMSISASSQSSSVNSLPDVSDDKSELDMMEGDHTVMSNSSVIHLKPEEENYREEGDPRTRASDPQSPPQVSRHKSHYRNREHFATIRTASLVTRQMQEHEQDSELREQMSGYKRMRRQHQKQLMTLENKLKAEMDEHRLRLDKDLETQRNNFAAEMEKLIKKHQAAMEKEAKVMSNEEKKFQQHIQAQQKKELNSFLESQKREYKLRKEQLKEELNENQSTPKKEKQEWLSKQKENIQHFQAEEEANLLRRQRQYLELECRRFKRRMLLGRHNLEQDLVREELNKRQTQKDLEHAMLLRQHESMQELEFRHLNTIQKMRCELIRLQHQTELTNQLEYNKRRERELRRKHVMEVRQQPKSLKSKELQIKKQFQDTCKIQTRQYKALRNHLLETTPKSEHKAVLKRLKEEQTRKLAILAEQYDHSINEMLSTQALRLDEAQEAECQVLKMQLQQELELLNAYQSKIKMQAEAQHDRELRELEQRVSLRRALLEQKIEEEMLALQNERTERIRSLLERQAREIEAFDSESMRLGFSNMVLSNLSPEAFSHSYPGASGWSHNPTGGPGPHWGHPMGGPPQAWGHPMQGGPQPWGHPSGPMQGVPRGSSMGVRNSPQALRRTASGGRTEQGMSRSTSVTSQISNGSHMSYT
The experiment in a line: Inhibition of TAO1 in human PC3 cell lysates at 10 uM using desthiobiotin-tagged ATP probe AX9989 followed by trypsinization by LC/MS analysis. To be noted: PC-3.

Test [7] has as its target Serine/threonine-protein kinase MARK2 (Homo sapiens) (UniProt Q7KZI7). The test is described as follows: Inhibition of MARK2 in human PC3 cell lysates at 10 uM using desthiobiotin-tagged ATP probe AX9989 followed by trypsinization by LC/MS analysis. To be noted: PC-3.
Test [8] concerns the target Serine/threonine-protein kinase MRCK beta (Homo sapiens) (UniProt Q9Y5S2). The test is described as follows: Inhibition of MRCKbeta in human PC3 cell lysates at 10 uM using desthiobiotin-tagged ATP probe AX9989 followed by trypsinization by LC/MS analysis. The settings on record: PC-3.
In test [9] the target is T2, EKC/KEOPS complex subunit TP53RK (Homo sapiens) (UniProt Q96S44).
T2 sequence (whole entry): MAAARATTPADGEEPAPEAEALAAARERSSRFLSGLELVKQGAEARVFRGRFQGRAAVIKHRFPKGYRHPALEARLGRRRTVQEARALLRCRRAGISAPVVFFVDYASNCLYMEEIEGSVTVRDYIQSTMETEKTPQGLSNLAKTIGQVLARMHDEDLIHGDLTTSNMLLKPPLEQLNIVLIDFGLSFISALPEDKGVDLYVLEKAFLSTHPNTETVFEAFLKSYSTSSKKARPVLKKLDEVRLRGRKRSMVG
The experiment in a line: Inhibition of PRPK in human PC3 cell lysates at 10 uM using desthiobiotin-tagged ATP probe AX9989 followed by trypsinization by LC/MS analysis. The settings on record: PC-3.

The target of test [10] is PI4KA/PI4KAP2 (Homo sapiens) (UniProt P42356+A4QPH2). The experiment in a line: Inhibition of PI4KA/PI4KAP2 in human PC3 cell lysates at 10 uM using desthiobiotin-tagged ATP probe AX9989 followed by trypsinization by LC/MS analysis. The class given is protein-complex assay. To be noted: PC-3.
Test [11] concerns the target Dual specificity mitogen-activated protein kinase kinase 2 (Homo sapiens) (UniProt P36507). The experiment in a line: Inhibition of MAP2K2 in human PC3 cell lysates at 10 uM using desthiobiotin-tagged ATP probe AX9989 followed by trypsinization by LC/MS analysis. To be noted: PC-3.
Test [12] concerns the target Serine/threonine-protein kinase Chk2 (Homo sapiens) (UniProt O96017). The test is described as follows: Inhibition of CHK2 in human PC3 cell lysates at 10 uM using desthiobiotin-tagged ATP probe AX9989 followed by trypsinization by LC/MS analysis. The settings on record: PC-3.

What is called inhibition is the drop in the measured response relative to a control, in per cent.

Serine/threonine-protein kinase Chk2 (Homo sapiens), sequence (O96017 whole entry): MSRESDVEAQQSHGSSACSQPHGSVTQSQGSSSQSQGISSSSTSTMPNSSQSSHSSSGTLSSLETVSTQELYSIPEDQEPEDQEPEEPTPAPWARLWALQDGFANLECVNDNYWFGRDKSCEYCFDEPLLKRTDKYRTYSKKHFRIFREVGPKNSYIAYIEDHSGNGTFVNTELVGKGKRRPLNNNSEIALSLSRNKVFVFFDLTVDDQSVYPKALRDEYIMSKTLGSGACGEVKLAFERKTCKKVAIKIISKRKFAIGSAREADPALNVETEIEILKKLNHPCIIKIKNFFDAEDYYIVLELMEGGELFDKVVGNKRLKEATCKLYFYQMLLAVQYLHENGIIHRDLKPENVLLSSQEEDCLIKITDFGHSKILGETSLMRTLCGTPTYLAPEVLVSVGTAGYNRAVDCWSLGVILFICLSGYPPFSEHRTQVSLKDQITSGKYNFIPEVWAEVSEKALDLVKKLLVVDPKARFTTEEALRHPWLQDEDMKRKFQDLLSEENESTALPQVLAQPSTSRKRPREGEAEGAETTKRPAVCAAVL
Serine/threonine-protein kinase MARK2 (Homo sapiens), sequence (Q7KZI7 whole entry): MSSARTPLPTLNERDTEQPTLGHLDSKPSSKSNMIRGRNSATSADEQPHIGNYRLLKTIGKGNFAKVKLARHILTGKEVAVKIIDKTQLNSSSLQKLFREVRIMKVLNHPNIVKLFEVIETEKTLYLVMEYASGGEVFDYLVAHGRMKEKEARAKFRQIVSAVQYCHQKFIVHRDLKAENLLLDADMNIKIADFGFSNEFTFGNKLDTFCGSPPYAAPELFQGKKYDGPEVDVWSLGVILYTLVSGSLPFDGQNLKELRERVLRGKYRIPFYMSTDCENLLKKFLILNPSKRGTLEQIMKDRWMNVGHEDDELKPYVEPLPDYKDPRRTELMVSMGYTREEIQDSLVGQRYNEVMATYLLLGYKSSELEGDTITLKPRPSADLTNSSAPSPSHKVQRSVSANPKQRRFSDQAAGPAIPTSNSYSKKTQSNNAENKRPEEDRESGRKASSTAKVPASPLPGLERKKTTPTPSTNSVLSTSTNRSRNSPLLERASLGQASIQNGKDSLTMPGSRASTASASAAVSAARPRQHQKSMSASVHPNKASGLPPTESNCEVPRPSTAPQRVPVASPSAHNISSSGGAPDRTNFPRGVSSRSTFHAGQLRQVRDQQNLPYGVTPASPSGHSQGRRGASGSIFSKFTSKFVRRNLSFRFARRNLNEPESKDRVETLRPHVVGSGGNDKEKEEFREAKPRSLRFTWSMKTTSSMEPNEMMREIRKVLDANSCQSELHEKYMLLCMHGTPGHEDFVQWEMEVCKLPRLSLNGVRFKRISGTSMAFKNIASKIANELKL
Interleukin-1 receptor-associated kinase 1 (Homo sapiens), sequence (P51617 whole entry, looked up): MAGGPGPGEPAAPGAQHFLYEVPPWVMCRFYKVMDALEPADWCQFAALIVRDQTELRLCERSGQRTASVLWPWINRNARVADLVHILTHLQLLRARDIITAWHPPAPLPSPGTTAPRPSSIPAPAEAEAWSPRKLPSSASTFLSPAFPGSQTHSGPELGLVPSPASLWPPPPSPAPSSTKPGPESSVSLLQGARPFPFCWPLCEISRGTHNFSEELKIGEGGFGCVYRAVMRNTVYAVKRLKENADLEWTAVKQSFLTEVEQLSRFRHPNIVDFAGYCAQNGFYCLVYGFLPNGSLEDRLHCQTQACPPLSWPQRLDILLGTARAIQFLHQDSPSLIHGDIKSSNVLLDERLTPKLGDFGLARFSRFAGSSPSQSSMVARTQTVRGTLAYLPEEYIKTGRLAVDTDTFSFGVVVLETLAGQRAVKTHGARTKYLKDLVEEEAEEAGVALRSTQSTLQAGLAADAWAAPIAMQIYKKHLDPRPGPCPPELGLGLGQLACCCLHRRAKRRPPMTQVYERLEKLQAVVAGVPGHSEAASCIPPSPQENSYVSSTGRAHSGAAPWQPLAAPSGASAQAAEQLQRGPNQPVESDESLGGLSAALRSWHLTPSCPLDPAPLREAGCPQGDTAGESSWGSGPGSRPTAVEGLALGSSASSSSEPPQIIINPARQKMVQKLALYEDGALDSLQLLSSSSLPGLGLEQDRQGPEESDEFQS

Consider `O=C(NC1(c2ccccc2)CCC1)c1ccc2nc(N[C@H]3CC[C@H](O)CC3)c3nccn3c2c1`, for which the inhibition (in the test with PC-3; in test [1]; in test [2]; in test [3]; in test [4]; in test [5]) was below 35% in each case. In addition, the inhibition in test [6], in test [7], in test [8], in test [9], in test [10] and in test [11] was below 35% throughout. The inhibition in test [12] was below 35%.

Take `O=C(O)c1ccc2nc(N[C@H]3CC[C@H](O)CC3)c3nccn3c2c1`: the inhibition (in the test on PC-3; in test [1]; in test [2]; in test [3]; in [4]; in [5]) was below 35% throughout. The inhibition in test [6] was below 35%; in test [7], below 35%; in [8], below 35%; in test [9], 86.6%; in test [10], 73.1%; in [11], below 35%. Also, in test [12], the inhibition turned out to be 35%.
